# Measured values published in patent US12060438B2, “Cyclic peptide compounds and methods of use thereof” (MODULATION THERAPEUTICS, INC., priority 2018, dated 2024).
# “Also recorded” adds a separate entry of the source. Starred links: 1 amine or outer side, 2 acyl side, 3 side chain; linkers in the order of their positions; H or OH if unused. Positions of bridges follow the written chain, without caps; N, C: chain ends. Non-standard residues stand in square brackets, D forms with d. Residues, ends and D or L forms follow the SMILES beside them. *: point of attachment. dProlinol(O-CH2CO) = O=C(COC[C@H]1CCCN1[*:1])[*:2]; N(2-Aminoethyl)Gly = O=C(CN(CCN[*:3])[*:1])[*:2]; X1 = N[C@@H](CS)C(=O)NCCCS(=O)(=O)*; Nle = CCCC[C@H](N)C(=O)O
# Test system: U266 myeloma cell line
# Assay: Cell death in U266 myeloma cell line (Dapi dead / Fluo-4 live staining, imaging)
# Assay type: cell-based
# Conditions: Dapi for dead cells, Fluo-4 for live cells, imaged at 6 hours, n=3, compared with Compound A (FIG. 1)
# Experimental: Compound 2 was tested alongside Compound A and cell death was measured in a U266 myeloma cell line. Dapi staining was used for detection of dead cells and Fluo-4 was used for staining live cells. Cells were then imaged at 6 hours using a Cytation 5 Biotek imaging plate reader.
compound,measurement,value
CCCC[C@@H]1NC(=O)CN(S(=O)(=O)CCCNC(=O)[C@@H](N)CS)CCNC(=O)[C@H](CCCCN)NC(=O)[C@H](CC(C)C)NC(=O)[C@H](CCCCN)NC(=O)[C@H](CC(C)C)NC(=O)[C@H](CCCCN)NC(=O)COC[C@H]2CCCN2C(=O)[C@H](Cc2c[nH]c3ccccc23)NC(=O)[C@H](C)NC(=O)[C@H](C(C)C)NC(=O)[C@H](C(C)C)NC1=O [Compound 2] (X1-[N(2-Aminoethyl)Gly][Nle]VVAW[dProlinol(O-CH2CO)]KLKLK; lactam 1-C),potency (cell death),increased potency relative to Compound A; also recorded: more potency compared to Compound A
